Data as given in article PMC7270110, “Labeled oxytocin administered via the intranasal route reaches the brain in rhesus macaques” (Nature Communications, 2020).

Assay: Brain tissue concentration of endogenous OT (d0OT) by LC-MS/MS (terminal experiment)
Format: in vivo, rhesus macaques (Macaca mulatta)
Conditions: for BRAIN OT concentration (endogenous): LC-MS/MS; for Concentrations of endogenous brain oxytocin (OT): molarity calculated for extracellular fluid volume
Description: Monkeys were divided into three groups, each with two monkeys; each group received the following in a terminal study at the 5th week: Group 1 (Monkeys ID# 1 and ID# 5) received 40 IU of d5OT IN, Group 2 received 80 IU of d5OT IN (Monkeys ID# 2 and ID# 4) and Group 3 received 80 IU of d5OT IV (Monkeys ID# 3 and ID# 6). Animals were perfused on average, 140 ± 7 (mean ± SD) min after d5OT administration (range = 135–149 min) (Table 4). Plasma and CSF were drawn just before administration of d5OT, at the midpoint between d5OT administration and perfusion (~60 min post-d5OT administration), and just before perfusion.
Brain tissue distribution of d5OT, as well as the endogenous concentrations of OT (d0OT), were measured in the following 12 brain regions: cerebellum, brainstem, striatum, amygdala, thalamus, visual cortex, insular cortex, hypothalamus, hippocampus, mPFC (Brodmann areas 32,25,24), dPFC (Brodmann areas 46,9,10), and OFC (Brodmann areas 14,13,12) (Tables 1, 2 and 3).
Brain tissue sample preparation: Samples (~1.5 mg per sample) were individually weighed and placed into 12 mm × 75 mm glass tubes containing 1.5 ml ice-cold 1 M acetic acid and 30 µl of OT-d10 internal standard. Tissues were homogenized on ice and the resulting homogenates were poured into individual 15 ml polystyrene tubes. The original glass tube was rinsed with 1 ml acetonitrile, and this rinse was added to the appropriate 15 ml polystyrene tube containing the homogenate. After all homogenizations were complete, 3 ml acetonitrile was added to each tube and extraction proceeded, as described for the plasma and CSF samples.
LC–MS/MS instrument parameters: Microtiter plates were prepared, as described above, and loaded onto a SIL-30ACMP autosampler set at 4 °C (Shimadzu). Forty microliters of each standard, QC or sample were injected onto an ACE Excel 2 C18-PFP 50 mm × 2.1 mm column (Advanced Chromatography Technologies, LTD, Aberdeen, Scotland) at 50 °C using reversed-phase chromatography. Mobile phase A was 0.1% formic acid in water and mobile phase B was 0.1% formic acid in ACN. The LC time gradient was created using two Nexera LC-30AD pumps (Shimadzu) running at 0.5 ml/min. Chromatography for serum and CSF samples began at 10% B and ended at 16% B at 3.6 min. One minute at 60% B was then required to wash the column, and the pumps re-equilibrated at 10% B for an additional 1.7 min (total run time ~6 min). Outside of the 1.55–3.55 min window during which OT eluted, a divert valve sent the LC effluent to waste.
Heated electrospray […] in positive mode, with scheduled multiple reaction monitoring (MRM) on a Shimadzu LCMS-8050, was used for detection of OT. The interface temperature was 270 °C and heat block temperature was 170 °C. Gas was supplied by a Peak Genius 1051 nitrogen and air generator (Peak Scientific, Inchinnan, UK). Nitrogen gas was used for nebulizing (1 L/min) and drying (8.2 L/min), while air was used for heating (7.8 L/min). A capillary B needle was used in the interface. Needle protrusion was set to 1.25 mm and probe distance was set to 1.0 mm; both were determined empirically. Argon (Airgas, Radnor, PA) was used for the collision-induced dissociation at 330 kPa. The MS/MS conditions for OT were optimized using the automated MRM optimization procedure in LabSolutions software (Shimadzu). We collected two MRM transitions each, for d0OT (1007.40 > 723.40 and 1007.40 > 285.30), d5OT (1012.00 > 723.40 and 1012.00 > 290.35), and d10OT (1017.70 > 723.35 and 1017.70 > 295.40); the first transition listed in each case was used for quantitation, while the second was used as a reference ion. Retention times for d0OT, d5OT, and d10OT were 3.290, 3.270, and 3.253 min, respectively.
The sensitivities of each assay within the method were determined by the lowest and highest concentration calibrators in the calibration curve. The lower limit of quantitation (LLOQ) for d0OT was 10 pg/ml (4 pg/col); the LLOQ for d5OT was 100 pg/ml (40 pg/col). […]

Q: For `CC[C@H](C)[C@@H]1NC(=O)[C@H](Cc2ccc(O)cc2)NC(=O)[C@@H](N)CSSC[C@@H](C(=O)N2CCC[C@H]2C(=O)N[C@@H](CC(C)C)C(=O)NCC(N)=O)NC(=O)[C@H](CC(N)=O)NC(=O)[C@H](CCC(N)=O)NC1=O` [OT, oxytocin], which “BRAIN OT concentration (endogenous)” value (Insular Cortex, after d5OT 40 IU IN, monkey #5 (F), perfused 138 min post-dose) is on record?
A: 0.30 pg/mg

Q: What about the “BRAIN OT concentration (endogenous)” value (Insular Cortex, after d5OT 80 IU IN, monkey #4 (M), perfused 135 min post-dose) of the same molecule?
A: 0.06 pg/mg

Q: And the “BRAIN OT concentration (endogenous)” value (Insular Cortex, after d5OT 80 IU IV, monkey #3 (F), perfused 149 min post-dose)?
A: 0.16 pg/mg

Q: And the “Concentrations of endogenous brain oxytocin (OT)” value (“Concentrations” below) (OFC, 40 IN, monkey #1 (F))?
A: 1e-09 M

Q: What about the “Concentrations” value (OFC, 40 IN, monkey #5 (F)) of the same molecule?
A: 5e-09 M

Q: And the “Concentrations” value (OFC, 80 IN, monkey #2 (M))?
A: 2.2e-09 M

Q: What about the “Concentrations” value (OFC, 80 IN, monkey #4 (M)) of the same molecule?
A: 9e-09 M

Q: What about the “Concentrations” value (OFC, 80 IV, monkey #3 (F)) of the same molecule?
A: 2e-09 M

Q: And the “BRAIN OT concentration (endogenous)” value (OFC, after d5OT 40 IU IN, monkey #1 (F), perfused 148 min post-dose)?
A: 0.22 pg/mg

Q: And the “BRAIN OT concentration (endogenous)” value (OFC, after d5OT 40 IU IN, monkey #5 (F), perfused 138 min post-dose)?
A: 0.96 pg/mg

Q: What about the “BRAIN OT concentration (endogenous)” value (OFC, after d5OT 80 IU IN, monkey #2 (M), perfused 136 min post-dose) of the same molecule?
A: 0.40 pg/mg

Q: What about the “BRAIN OT concentration (endogenous)” value (OFC, after d5OT 80 IU IN, monkey #4 (M), perfused 135 min post-dose) of the same molecule?
A: 1.59 pg/mg

Q: And the “BRAIN OT concentration (endogenous)” value (OFC, after d5OT 80 IU IV, monkey #3 (F), perfused 149 min post-dose)?
A: 0.44 pg/mg

Q: And the “Concentrations” value (Striatum, 40 IN, monkey #1 (F))?
A: 3e-09 M

Q: And the “Concentrations” value (Striatum, 40 IN, monkey #5 (F))?
A: 7e-09 M

Q: And the “Concentrations” value (Striatum, 80 IN, monkey #2 (M))?
A: 9e-09 M

Q: And the “Concentrations” value (Striatum, 80 IN, monkey #4 (M))?
A: 9.7e-08 M

Q: And the “Concentrations” value (Striatum, 80 IV, monkey #3 (F))?
A: 7.9e-08 M

Q: What about the “Concentrations” value (Striatum, 80 IV, monkey #6 (F)) of the same molecule?
A: 8.6e-08 M

Q: What about the “BRAIN OT concentration (endogenous)” value (Striatum, after d5OT 40 IU IN, monkey #1 (F), perfused 148 min post-dose) of the same molecule?
A: 0.63 pg/mg

Q: And the “BRAIN OT concentration (endogenous)” value (Striatum, after d5OT 40 IU IN, monkey #5 (F), perfused 138 min post-dose)?
A: 1.20 pg/mg

Q: What about the “BRAIN OT concentration (endogenous)” value (Striatum, after d5OT 80 IU IN, monkey #2 (M), perfused 136 min post-dose) of the same molecule?
A: 1.58 pg/mg

Q: What about the “BRAIN OT concentration (endogenous)” value (Striatum, after d5OT 80 IU IN, monkey #4 (M), perfused 135 min post-dose) of the same molecule?
A: 17.81 pg/mg

Q: And the “BRAIN OT concentration (endogenous)” value (Striatum, after d5OT 80 IU IV, monkey #3 (F), perfused 149 min post-dose)?
A: 14.45 pg/mg

Q: And the “BRAIN OT concentration (endogenous)” value (Striatum, after d5OT 80 IU IV, monkey #6 (F), perfused 135 min post-dose)?
A: 15.82 pg/mg

Q: And the “Concentrations” value (Thalamus, 40 IN, monkey #1 (F))?
A: 2.4e-08 M

Q: And the “Concentrations” value (Thalamus, 40 IN, monkey #5 (F))?
A: 4e-08 M

Q: What about the “Concentrations” value (Thalamus, 80 IN, monkey #2 (M)) of the same molecule?
A: 6e-09 M

Q: What about the “Concentrations” value (Thalamus, 80 IN, monkey #4 (M)) of the same molecule?
A: 1.7e-08 M

Q: What about the “Concentrations” value (Thalamus, 80 IV, monkey #3 (F)) of the same molecule?
A: 2.1e-08 M

Q: What about the “Concentrations” value (Thalamus, 80 IV, monkey #6 (F)) of the same molecule?
A: 1.55e-07 M

Q: What about the “BRAIN OT concentration (endogenous)” value (Thalamus, after d5OT 40 IU IN, monkey #1 (F), perfused 148 min post-dose) of the same molecule?
A: 4.39 pg/mg

Q: What about the “BRAIN OT concentration (endogenous)” value (Thalamus, after d5OT 40 IU IN, monkey #5 (F), perfused 138 min post-dose) of the same molecule?
A: 7.31 pg/mg

Q: What about the “BRAIN OT concentration (endogenous)” value (Thalamus, after d5OT 80 IU IN, monkey #2 (M), perfused 136 min post-dose) of the same molecule?
A: 1.02 pg/mg

Q: What about the “BRAIN OT concentration (endogenous)” value (Thalamus, after d5OT 80 IU IN, monkey #4 (M), perfused 135 min post-dose) of the same molecule?
A: 3.09 pg/mg

Q: What about the “BRAIN OT concentration (endogenous)” value (Thalamus, after d5OT 80 IU IV, monkey #3 (F), perfused 149 min post-dose) of the same molecule?
A: 3.85 pg/mg

Q: And the “BRAIN OT concentration (endogenous)” value (Thalamus, after d5OT 80 IU IV, monkey #6 (F), perfused 135 min post-dose)?
A: 28.34 pg/mg

Q: And the “Concentrations” value (dPFC, 40 IN, monkey #5 (F))?
A: 1e-09 M

Q: And the “Concentrations” value (dPFC, 80 IN, monkey #4 (M))?
A: 1e-09 M

Q: And the “Concentrations” value (dPFC, 80 IV, monkey #3 (F))?
A: 2e-09 M

Q: What about the “BRAIN OT concentration (endogenous)” value (dPFC, after d5OT 40 IU IN, monkey #5 (F), perfused 138 min post-dose) of the same molecule?
A: 0.16 pg/mg

Q: And the “BRAIN OT concentration (endogenous)” value (dPFC, after d5OT 80 IU IN, monkey #4 (M), perfused 135 min post-dose)?
A: 0.20 pg/mg

Q: And the “BRAIN OT concentration (endogenous)” value (dPFC, after d5OT 80 IU IV, monkey #3 (F), perfused 149 min post-dose)?
A: 0.27 pg/mg

Q: What about the “BRAIN OT concentration (endogenous)” value (mPFC, after d5OT 40 IU IN, monkey #1 (F), perfused 148 min post-dose) of the same molecule?
A: 0.86 pg/mg

Q: And the “BRAIN OT concentration (endogenous)” value (mPFC, after d5OT 40 IU IN, monkey #5 (F), perfused 138 min post-dose)?
A: 0.88 pg/mg

Q: And the “BRAIN OT concentration (endogenous)” value (mPFC, after d5OT 80 IU IN, monkey #4 (M), perfused 135 min post-dose)?
A: 0.45 pg/mg
